Holding throughout (type): cell-based
Settings in all cases: 24 hours of compound treatment, 50 nM and 500 nM tested (concentration behind the class not stated)

One assay has as its target T1, WEE1 (Homo sapiens, UniProt P30291+Q96SW2).
T1 construct: endogenous in cells; host or cells: hPBMCs (Milecell Biotechnologies)
In words: Western-blot assay of substrate protein degradation in hPBMCs, WEE1.

The target of the next assay is T2, IKZF1 (Homo sapiens, UniProt Q13422+Q96SW2).
T2 construct: endogenous in cells; host or cells: hPBMCs (Milecell Biotechnologies)
In words: Western-blot assay of substrate protein degradation in hPBMCs, IKZF1.

The next assay has as its target T3, IKZF2 (Homo sapiens, UniProt Q96SW2+Q9UKS7).
T3 construct: endogenous in cells; host or cells: hPBMCs (Milecell Biotechnologies)
Nature of the assay: Western-blot assay of substrate protein degradation in hPBMCs, IKZF2.

The target of a further assay is T4, IKZF3 (Homo sapiens, UniProt Q96SW2+Q9UKT9).
T4 construct: endogenous in cells; host or cells: hPBMCs (Milecell Biotechnologies)
In words: Western-blot assay of substrate protein degradation in hPBMCs, IKZF3.

A further assay deals with T5, CK1α (Homo sapiens, UniProt P48729+Q96SW2).
T5 construct: endogenous in cells; host or cells: hPBMCs (Milecell Biotechnologies)
In words: Western-blot assay of substrate protein degradation in hPBMCs, CK1α.

Another assay deals with T6, GSPT1 (Homo sapiens, UniProt P15170+Q96SW2).
T6 construct: endogenous in cells; host or cells: hPBMCs (Milecell Biotechnologies)
Nature of the assay: Western-blot assay of substrate protein degradation in hPBMCs, GSPT1.

T2 sequence (Q13422 whole entry): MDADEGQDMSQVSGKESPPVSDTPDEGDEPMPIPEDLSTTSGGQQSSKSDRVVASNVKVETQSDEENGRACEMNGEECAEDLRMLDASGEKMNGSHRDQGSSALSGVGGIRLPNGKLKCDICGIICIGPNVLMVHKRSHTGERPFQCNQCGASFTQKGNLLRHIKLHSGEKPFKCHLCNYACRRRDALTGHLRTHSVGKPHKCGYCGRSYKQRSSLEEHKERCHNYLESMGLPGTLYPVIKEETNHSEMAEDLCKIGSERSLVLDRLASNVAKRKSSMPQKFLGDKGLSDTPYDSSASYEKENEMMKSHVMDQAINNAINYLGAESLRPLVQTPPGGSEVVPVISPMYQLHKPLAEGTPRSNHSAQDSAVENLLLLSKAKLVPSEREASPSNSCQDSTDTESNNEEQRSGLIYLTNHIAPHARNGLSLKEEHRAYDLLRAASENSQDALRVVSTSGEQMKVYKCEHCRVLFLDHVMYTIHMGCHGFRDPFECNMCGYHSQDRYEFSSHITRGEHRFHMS
T2 sequence (Q96SW2 whole entry): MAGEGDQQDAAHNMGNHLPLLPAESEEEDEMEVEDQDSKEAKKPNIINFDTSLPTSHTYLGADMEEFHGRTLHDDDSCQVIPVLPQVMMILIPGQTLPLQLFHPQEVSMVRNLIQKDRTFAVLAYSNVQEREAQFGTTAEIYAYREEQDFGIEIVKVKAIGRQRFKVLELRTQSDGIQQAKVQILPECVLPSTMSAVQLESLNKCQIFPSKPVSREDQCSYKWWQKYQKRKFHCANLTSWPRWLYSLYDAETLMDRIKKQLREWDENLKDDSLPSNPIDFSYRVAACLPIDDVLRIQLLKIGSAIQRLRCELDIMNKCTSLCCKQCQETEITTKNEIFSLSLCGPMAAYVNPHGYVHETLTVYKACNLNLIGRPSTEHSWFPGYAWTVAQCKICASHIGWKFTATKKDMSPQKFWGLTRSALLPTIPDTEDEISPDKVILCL
T2 sequence (Q16531 whole entry partner): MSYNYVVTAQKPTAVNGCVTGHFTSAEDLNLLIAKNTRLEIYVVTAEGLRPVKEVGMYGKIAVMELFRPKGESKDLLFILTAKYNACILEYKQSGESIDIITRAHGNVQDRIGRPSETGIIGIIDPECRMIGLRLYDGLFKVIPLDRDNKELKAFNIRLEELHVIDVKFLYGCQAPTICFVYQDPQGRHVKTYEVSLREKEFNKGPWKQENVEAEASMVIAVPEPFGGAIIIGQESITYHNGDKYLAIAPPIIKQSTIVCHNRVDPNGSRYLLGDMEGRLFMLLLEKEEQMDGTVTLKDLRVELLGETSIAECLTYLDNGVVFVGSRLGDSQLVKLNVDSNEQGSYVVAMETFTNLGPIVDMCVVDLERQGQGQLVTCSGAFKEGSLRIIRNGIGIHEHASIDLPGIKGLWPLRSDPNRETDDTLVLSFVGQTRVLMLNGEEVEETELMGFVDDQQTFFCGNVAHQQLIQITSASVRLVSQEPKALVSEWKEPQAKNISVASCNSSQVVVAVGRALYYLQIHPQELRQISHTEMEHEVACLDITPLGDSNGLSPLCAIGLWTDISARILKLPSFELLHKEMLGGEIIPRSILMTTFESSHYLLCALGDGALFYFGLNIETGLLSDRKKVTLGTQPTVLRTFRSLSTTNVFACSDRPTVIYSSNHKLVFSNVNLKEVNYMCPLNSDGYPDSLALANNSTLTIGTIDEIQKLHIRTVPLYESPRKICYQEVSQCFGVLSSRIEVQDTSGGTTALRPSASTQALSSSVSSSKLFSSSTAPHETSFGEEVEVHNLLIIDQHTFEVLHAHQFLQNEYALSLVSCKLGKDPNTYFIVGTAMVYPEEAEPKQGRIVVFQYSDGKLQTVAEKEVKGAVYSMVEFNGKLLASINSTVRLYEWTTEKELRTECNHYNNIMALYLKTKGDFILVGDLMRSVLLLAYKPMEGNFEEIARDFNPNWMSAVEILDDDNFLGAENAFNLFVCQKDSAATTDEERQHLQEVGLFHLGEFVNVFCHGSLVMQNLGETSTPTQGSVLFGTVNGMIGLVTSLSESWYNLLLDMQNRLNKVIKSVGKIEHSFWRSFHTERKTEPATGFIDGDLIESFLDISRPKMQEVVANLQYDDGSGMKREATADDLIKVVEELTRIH
T1 sequence (P30291 whole entry): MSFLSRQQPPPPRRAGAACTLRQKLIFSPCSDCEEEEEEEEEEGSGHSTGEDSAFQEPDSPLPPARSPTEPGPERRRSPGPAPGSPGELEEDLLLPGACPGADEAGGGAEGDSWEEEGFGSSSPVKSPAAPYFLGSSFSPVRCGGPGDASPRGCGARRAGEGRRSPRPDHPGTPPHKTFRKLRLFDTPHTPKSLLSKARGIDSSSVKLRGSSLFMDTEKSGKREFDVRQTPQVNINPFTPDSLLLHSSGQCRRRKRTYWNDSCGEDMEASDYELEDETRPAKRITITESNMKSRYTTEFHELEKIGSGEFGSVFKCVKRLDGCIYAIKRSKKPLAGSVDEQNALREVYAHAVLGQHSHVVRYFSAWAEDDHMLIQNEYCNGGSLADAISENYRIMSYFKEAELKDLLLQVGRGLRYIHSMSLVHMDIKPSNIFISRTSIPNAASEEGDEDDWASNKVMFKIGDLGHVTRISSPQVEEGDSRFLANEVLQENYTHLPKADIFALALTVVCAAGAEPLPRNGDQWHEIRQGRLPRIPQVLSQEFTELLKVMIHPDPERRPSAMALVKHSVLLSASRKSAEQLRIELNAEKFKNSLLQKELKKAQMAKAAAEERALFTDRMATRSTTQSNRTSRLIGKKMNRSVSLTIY
T1 sequence (Q96SW2 whole entry): as the sequence (Q96SW2 whole entry) above
T1 sequence (Q16531 whole entry partner): as the sequence (Q16531 whole entry partner) above
T6 sequence (P15170 whole entry): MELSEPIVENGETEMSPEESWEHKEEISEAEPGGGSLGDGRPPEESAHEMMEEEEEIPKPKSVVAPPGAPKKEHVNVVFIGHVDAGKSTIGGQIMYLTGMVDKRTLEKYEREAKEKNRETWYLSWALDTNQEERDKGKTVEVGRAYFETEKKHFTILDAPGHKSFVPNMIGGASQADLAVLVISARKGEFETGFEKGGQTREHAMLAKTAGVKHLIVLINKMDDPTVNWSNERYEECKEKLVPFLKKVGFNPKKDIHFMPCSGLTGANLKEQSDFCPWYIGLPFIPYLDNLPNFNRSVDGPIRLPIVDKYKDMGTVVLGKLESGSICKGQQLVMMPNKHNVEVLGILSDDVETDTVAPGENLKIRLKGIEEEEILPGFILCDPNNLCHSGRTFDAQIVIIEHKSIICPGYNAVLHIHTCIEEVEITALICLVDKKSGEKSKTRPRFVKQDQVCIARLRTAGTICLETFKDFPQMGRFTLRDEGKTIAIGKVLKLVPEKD
T6 sequence (Q96SW2 whole entry): as the sequence (Q96SW2 whole entry) above
T6 sequence (Q16531 whole entry partner): as the sequence (Q16531 whole entry partner) above
T3 sequence (Q9UKS7 whole entry): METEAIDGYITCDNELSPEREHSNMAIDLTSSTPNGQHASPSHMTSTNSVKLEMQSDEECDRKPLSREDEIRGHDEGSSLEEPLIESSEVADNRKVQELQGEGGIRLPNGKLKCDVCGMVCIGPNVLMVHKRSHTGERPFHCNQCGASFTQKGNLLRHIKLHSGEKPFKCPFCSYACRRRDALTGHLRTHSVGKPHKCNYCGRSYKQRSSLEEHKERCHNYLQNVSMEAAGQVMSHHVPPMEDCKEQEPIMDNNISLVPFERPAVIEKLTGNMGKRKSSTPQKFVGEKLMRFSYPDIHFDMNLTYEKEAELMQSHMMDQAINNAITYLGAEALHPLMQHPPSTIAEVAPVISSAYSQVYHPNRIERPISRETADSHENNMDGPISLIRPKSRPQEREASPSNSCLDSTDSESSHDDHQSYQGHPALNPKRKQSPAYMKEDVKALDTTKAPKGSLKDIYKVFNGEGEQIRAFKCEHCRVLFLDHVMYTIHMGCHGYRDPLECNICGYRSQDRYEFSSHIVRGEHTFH
T3 sequence (Q96SW2 whole entry): as the sequence (Q96SW2 whole entry) above
T3 sequence (Q16531 whole entry partner): as the sequence (Q16531 whole entry partner) above
T5 sequence (P48729 whole entry): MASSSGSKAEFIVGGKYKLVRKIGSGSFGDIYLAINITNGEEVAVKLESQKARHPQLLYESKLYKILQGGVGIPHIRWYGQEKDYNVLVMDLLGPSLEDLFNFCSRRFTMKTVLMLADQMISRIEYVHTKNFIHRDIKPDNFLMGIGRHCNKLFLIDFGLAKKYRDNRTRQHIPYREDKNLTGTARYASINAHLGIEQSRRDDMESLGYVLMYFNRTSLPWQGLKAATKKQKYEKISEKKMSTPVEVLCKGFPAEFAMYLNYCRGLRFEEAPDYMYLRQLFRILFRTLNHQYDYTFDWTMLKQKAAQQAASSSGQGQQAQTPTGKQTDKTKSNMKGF
T5 sequence (Q96SW2 whole entry): as the sequence (Q96SW2 whole entry) above
T5 sequence (Q16531 whole entry partner): as the sequence (Q16531 whole entry partner) above

As for `Cc1cc2c(C3CCN(Cc4ccc5c(c4)C(=O)N(C4CCC(=O)NC4=O)C5=O)CC3)ncnc2s1` (stereo not drawn) [GT-06592, 2-(2,6-dioxopiperidin-3-yl)-5-((4-(6-methylthieno[2,3-d]pyrimidin-4-yl)piperidin-1-yl)methyl)isoindoline-1,3-dione], the “Weel substrate protein remaining %” value at WEE1 is recorded as “A (0% ≤ substrate protein remaining % ≤ 80%)”. Also, the “IKZF 1 substrate protein remaining %” value at IKZF1 is reported as “A (0% ≤ substrate protein remaining % ≤ 80%)”. For the same molecule, the “IKZF2 substrate protein remaining %” value on IKZF2 was “A (0% ≤ substrate protein remaining % ≤ 80%)”. Further, the “IKZF3 substrate protein remaining %” value at IKZF3 is recorded as “A (0% ≤ substrate protein remaining % ≤ 80%)”. Besides, the “CK1a substrate protein remaining %” value at CK1α is “B (80%< substrate protein remaining %≤ 100%)”. In addition, at GSPT1, the “GSPT1 substrate protein remaining %” value is recorded as “A (0% ≤ substrate protein remaining % ≤ 80%)”.
Consider `O=C1CCC(N2C(=O)c3ccc(CN4CCC(c5ncnc6sc(-c7ccccc7)cc56)CC4)cc3C2=O)C(=O)N1` (stereo not drawn) [GT-06594, 2-(2,6-dioxopiperidin-3-yl)-5-((4-(6-phenylthieno[2,3-d]pyrimidin-4-yl)piperidin-1-yl)methyl)isoindoline-1,3-dione], for which the “Weel substrate protein remaining %” value at WEE1 is on record as “A (0% ≤ substrate protein remaining % ≤ 80%)”. Moreover, the “IKZF 1 substrate protein remaining %” value at IKZF1 was “A (0% ≤ substrate protein remaining % ≤ 80%)”. At IKZF2, the “IKZF2 substrate protein remaining %” value was “A (0% ≤ substrate protein remaining % ≤ 80%)”. For the same molecule, the “IKZF3 substrate protein remaining %” value on IKZF3 is listed as “A (0% ≤ substrate protein remaining % ≤ 80%)”. Moreover, the “CK1a substrate protein remaining %” value on CK1α was “B (80%< substrate protein remaining %≤ 100%)”. Further, at GSPT1, the “GSPT1 substrate protein remaining %” value was “A (0% ≤ substrate protein remaining % ≤ 80%)”.
Turning to `O=C1CCC(N2C(=O)c3ccc(CN4CCN(c5c(Cl)cncc5Br)CC4)cc3C2=O)C(=O)N1` (stereo not drawn) [GT-06599, 5-((4-(3-bromo-5-chloropyridin-4-yl)piperazin-1-yl)methyl)-2-(2,6-dioxopiperidin-3-yl)isoindoline-1,3-dione], the “Weel substrate protein remaining %” value on WEE1 is “B (80%< substrate protein remaining %≤ 100%)”. On IKZF1, the “IKZF 1 substrate protein remaining %” value is on record as “B (80%< substrate protein remaining %≤ 100%)”. Besides, the “IKZF2 substrate protein remaining %” value on IKZF2 was “B (80%< substrate protein remaining %≤ 100%)”. Moreover, the “IKZF3 substrate protein remaining %” value on IKZF3 is “B (80%< substrate protein remaining %≤ 100%)”. The “CK1a substrate protein remaining %” value on CK1α was “B (80%< substrate protein remaining %≤ 100%)”. Besides, the “GSPT1 substrate protein remaining %” value at GSPT1 is “A (0% ≤ substrate protein remaining % ≤ 80%)”.
`O=C1CCC(N2C(=O)c3ccc(CN4CCN(c5c(F)cncc5Cl)CC4)cc3C2=O)C(=O)N1` (stereo not drawn) [GT-06600, 5-((4-(3-chloro-5-fluoropyridin-4-yl)piperazin-1-yl)methyl)-2-(2,6-dioxopiperidin-3-yl)isoindoline-1,3-dione]: the “Weel substrate protein remaining %” value at WEE1 is “B (80%< substrate protein remaining %≤ 100%)”. Moreover, on IKZF1, the “IKZF 1 substrate protein remaining %” value was “B (80%< substrate protein remaining %≤ 100%)”. Moreover, the “IKZF2 substrate protein remaining %” value on IKZF2 is listed as “B (80%< substrate protein remaining %≤ 100%)”. The “IKZF3 substrate protein remaining %” value on IKZF3 is on record as “B (80%< substrate protein remaining %≤ 100%)”. In addition, the “CK1a substrate protein remaining %” value at CK1α is given as “B (80%< substrate protein remaining %≤ 100%)”. Also, the “GSPT1 substrate protein remaining %” value at GSPT1 is “A (0% ≤ substrate protein remaining % ≤ 80%)”.
For `O=C1CCC(N2C(=O)c3ccc(CN4CCC(c5nccc(Cl)c5Cl)CC4)cc3C2=O)C(=O)N1` (stereo not drawn) [GT-06607, 5-((4-(3,4-dichloropyridin-2-yl)piperidin-1-yl)methyl)-2-(2,6-dioxopiperidin-3-yl)isoindoline-1,3-dione], at WEE1, the “Weel substrate protein remaining %” value is “B (80%< substrate protein remaining %≤ 100%)”. For the same molecule, the “IKZF 1 substrate protein remaining %” value on IKZF1 is “B (80%< substrate protein remaining %≤ 100%)”. On IKZF2, the “IKZF2 substrate protein remaining %” value is reported as “B (80%< substrate protein remaining %≤ 100%)”. Further, the “IKZF3 substrate protein remaining %” value at IKZF3 is “B (80%< substrate protein remaining %≤ 100%)”. Moreover, on CK1α, the “CK1a substrate protein remaining %” value was “B (80%< substrate protein remaining %≤ 100%)”. Further, the “GSPT1 substrate protein remaining %” value at GSPT1 is reported as “A (0% ≤ substrate protein remaining % ≤ 80%)”.
`O=C1CCC(N2C(=O)c3ccc(CN4CCC(c5ccnc(F)c5F)CC4)cc3C2=O)C(=O)N1` (stereo not drawn) [GT-06613, 5-((4-(2,3-difluoropyridin-4-yl)piperidin-1-yl)methyl)-2-(2,6-dioxopiperidin-3-yl)isoindoline-1,3-dione]: the “Weel substrate protein remaining %” value at WEE1 is recorded as “B (80%< substrate protein remaining %≤ 100%)”. Besides, the “IKZF 1 substrate protein remaining %” value at IKZF1 is “B (80%< substrate protein remaining %≤ 100%)”. Further, the “IKZF2 substrate protein remaining %” value at IKZF2 is “B (80%< substrate protein remaining %≤ 100%)”. On IKZF3, the “IKZF3 substrate protein remaining %” value is “B (80%< substrate protein remaining %≤ 100%)”. Besides, the “CK1a substrate protein remaining %” value at CK1α was “B (80%< substrate protein remaining %≤ 100%)”. Moreover, the “GSPT1 substrate protein remaining %” value at GSPT1 is listed as “A (0% ≤ substrate protein remaining % ≤ 80%)”.
For the molecule `O=C1CCC(N2C(=O)c3ccc(CN4CCC(c5ccnc(Cl)c5Cl)CC4)cc3C2=O)C(=O)N1` (stereo not drawn) [GT-06615, 5-((4-(2,3-dichloropyridin-4-yl)piperidin-1-yl)methyl)-2-(2,6-dioxopiperidin-3-yl)isoindoline-1,3-dione], on WEE1, the “Weel substrate protein remaining %” value is reported as “A (0% ≤ substrate protein remaining % ≤ 80%)”. In addition, on IKZF1, the “IKZF 1 substrate protein remaining %” value is on record as “B (80%< substrate protein remaining %≤ 100%)”. The “IKZF2 substrate protein remaining %” value on IKZF2 is “B (80%< substrate protein remaining %≤ 100%)”. The “IKZF3 substrate protein remaining %” value at IKZF3 was “A (0% ≤ substrate protein remaining % ≤ 80%)”. Further, on CK1α, the “CK1a substrate protein remaining %” value is given as “A (0% ≤ substrate protein remaining % ≤ 80%)”. Further, the “GSPT1 substrate protein remaining %” value on GSPT1 was “A (0% ≤ substrate protein remaining % ≤ 80%)”.
Take `O=C1CCC(N2C(=O)c3ccc(CN4CCN(c5ccnc(Cl)c5)CC4)cc3C2=O)C(=O)N1` (stereo not drawn) [GT-06619, 5-((4-(2-chloropyridin-4-yl)piperazin-1-yl)methyl)-2-(2,6-dioxopiperidin-3-yl)isoindoline-1,3-dione]: the “Weel substrate protein remaining %” value on WEE1 is on record as “B (80%< substrate protein remaining %≤ 100%)”. The “IKZF 1 substrate protein remaining %” value on IKZF1 is listed as “B (80%< substrate protein remaining %≤ 100%)”. Further, the “IKZF2 substrate protein remaining %” value at IKZF2 is on record as “B (80%< substrate protein remaining %≤ 100%)”. The “IKZF3 substrate protein remaining %” value at IKZF3 is “A (0% ≤ substrate protein remaining % ≤ 80%)”. The “CK1a substrate protein remaining %” value on CK1α is “B (80%< substrate protein remaining %≤ 100%)”. Moreover, at GSPT1, the “GSPT1 substrate protein remaining %” value is “A (0% ≤ substrate protein remaining % ≤ 80%)”.
Regarding `O=C1CCC(N2C(=O)c3ccc(CN4CCC(c5noc6ccccc56)CC4)cc3C2=O)C(=O)N1` (stereo not drawn) [GT-06627, 5-((4-(benzo[d]isoxazol-3-yl)piperidin-1-yl)methyl)-2-(2,6-dioxopiperidin-3-yl)isoindoline-1,3-dione], the “Weel substrate protein remaining %” value at WEE1 was “B (80%< substrate protein remaining %≤ 100%)”. The “IKZF 1 substrate protein remaining %” value on IKZF1 is “B (80%< substrate protein remaining %≤ 100%)”. In addition, on IKZF2, the “IKZF2 substrate protein remaining %” value was “B (80%< substrate protein remaining %≤ 100%)”. The “IKZF3 substrate protein remaining %” value on IKZF3 is given as “B (80%< substrate protein remaining %≤ 100%)”. Further, at CK1α, the “CK1a substrate protein remaining %” value is listed as “B (80%< substrate protein remaining %≤ 100%)”. Besides, the “GSPT1 substrate protein remaining %” value on GSPT1 is “A (0% ≤ substrate protein remaining % ≤ 80%)”.
Regarding `O=C1CCC(N2C(=O)c3ccc(CN4CCC(c5ccon5)CC4)cc3C2=O)C(=O)N1` (stereo not drawn) [GT-06628, 2-(2,6-dioxopiperidin-3-yl)-5-((4-(isoxazol-3-yl)piperidin-1-yl)methyl)isoindoline-1,3-dione], the “Weel substrate protein remaining %” value on WEE1 is “B (80%< substrate protein remaining %≤ 100%)”. The “IKZF 1 substrate protein remaining %” value at IKZF1 is on record as “B (80%< substrate protein remaining %≤ 100%)”. Further, the “IKZF2 substrate protein remaining %” value on IKZF2 was “B (80%< substrate protein remaining %≤ 100%)”. The “IKZF3 substrate protein remaining %” value at IKZF3 is recorded as “B (80%< substrate protein remaining %≤ 100%)”. Further, at CK1α, the “CK1a substrate protein remaining %” value is on record as “B (80%< substrate protein remaining %≤ 100%)”. Moreover, the “GSPT1 substrate protein remaining %” value at GSPT1 is on record as “A (0% ≤ substrate protein remaining % ≤ 80%)”.
For `O=C1CCC(N2C(=O)c3ccc(CN4CCN(c5noc6cc(F)ccc56)CC4)cc3C2=O)C(=O)N1` (stereo not drawn) [GT-06629, 2-(2,6-dioxopiperidin-3-yl)-5-((4-(6-fluorobenzo[d]isoxazol-3-yl)piperazin-1-yl)methyl)isoindoline-1,3-dione], on WEE1, the “Weel substrate protein remaining %” value is listed as “A (0% ≤ substrate protein remaining % ≤ 80%)”. For the same molecule, the “IKZF 1 substrate protein remaining %” value at IKZF1 is given as “B (80%< substrate protein remaining %≤ 100%)”. The “IKZF2 substrate protein remaining %” value on IKZF2 is on record as “A (0% ≤ substrate protein remaining % ≤ 80%)”. Besides, the “IKZF3 substrate protein remaining %” value on IKZF3 is “B (80%< substrate protein remaining %≤ 100%)”. The “CK1a substrate protein remaining %” value on CK1α is “A (0% ≤ substrate protein remaining % ≤ 80%)”. In addition, the “GSPT1 substrate protein remaining %” value at GSPT1 was “A (0% ≤ substrate protein remaining % ≤ 80%)”.
On to `O=C1CCC(N2C(=O)c3ccc(CN4CCN(c5noc6ccncc56)CC4)cc3C2=O)C(=O)N1` (stereo not drawn) [GT-06630, 2-(2,6-dioxopiperidin-3-yl)-5-((4-(isoxazolo[4,5-c]pyridin-3-yl)piperazin-1-yl)methyl)isoindoline-1,3-dione], for which, on WEE1, the “Weel substrate protein remaining %” value is given as “A (0% ≤ substrate protein remaining % ≤ 80%)”. Besides, the “IKZF 1 substrate protein remaining %” value at IKZF1 was “B (80%< substrate protein remaining %≤ 100%)”. In addition, the “IKZF2 substrate protein remaining %” value at IKZF2 was “A (0% ≤ substrate protein remaining % ≤ 80%)”. For the same molecule, the “IKZF3 substrate protein remaining %” value on IKZF3 is recorded as “B (80%< substrate protein remaining %≤ 100%)”. At CK1α, the “CK1a substrate protein remaining %” value was “A (0% ≤ substrate protein remaining % ≤ 80%)”. Further, the “GSPT1 substrate protein remaining %” value on GSPT1 is “A (0% ≤ substrate protein remaining % ≤ 80%)”.

Source of the values: patent publication EP4745137A1 (Gluetacs Therapeutics (Shanghai) Co., Ltd., priority 2023, dated 2025).
